Reference: PMC7383607, “Kinetic and structural studies of Trypanosoma and Leishmania phosphofructokinases show evolutionary divergence and identify AMP as a switch regulating glycolysis versus gluconeogenesis” (The Febs Journal, 2020)

T1: TcPFK (Trypanosoma cruzi phosphofructokinase) (Trypanosoma cruzi, UniProt Q4E657)
T1 construct: gene pfk; recombinant, E. coli, purified; N-terminal His6 tag (given for SPR); glycosomal homotetramer
T1 sequence (Q4E657 1-485): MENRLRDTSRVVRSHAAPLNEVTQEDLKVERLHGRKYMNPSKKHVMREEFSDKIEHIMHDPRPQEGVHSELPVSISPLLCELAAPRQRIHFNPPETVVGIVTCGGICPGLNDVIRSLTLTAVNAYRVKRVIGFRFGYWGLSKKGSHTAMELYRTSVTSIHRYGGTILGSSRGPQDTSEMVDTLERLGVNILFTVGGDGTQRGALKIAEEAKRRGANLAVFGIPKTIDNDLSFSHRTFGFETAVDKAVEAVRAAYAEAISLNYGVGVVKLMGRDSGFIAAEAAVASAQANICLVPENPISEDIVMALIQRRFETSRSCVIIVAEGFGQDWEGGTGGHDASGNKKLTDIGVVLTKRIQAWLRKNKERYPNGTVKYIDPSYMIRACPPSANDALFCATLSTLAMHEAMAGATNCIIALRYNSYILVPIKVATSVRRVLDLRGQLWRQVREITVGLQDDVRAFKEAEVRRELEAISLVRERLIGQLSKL

T2: TbPFK (Trypanosoma brucei phosphofructokinase) (Trypanosoma brucei, UniProt O15648)
T2 construct: gene pfk; recombinant, E. coli, purified; N-terminal His6 tag (for SPR and reaction order tests); tetramer of 53-kDa subunits
T2 sequence (O15648 1-487): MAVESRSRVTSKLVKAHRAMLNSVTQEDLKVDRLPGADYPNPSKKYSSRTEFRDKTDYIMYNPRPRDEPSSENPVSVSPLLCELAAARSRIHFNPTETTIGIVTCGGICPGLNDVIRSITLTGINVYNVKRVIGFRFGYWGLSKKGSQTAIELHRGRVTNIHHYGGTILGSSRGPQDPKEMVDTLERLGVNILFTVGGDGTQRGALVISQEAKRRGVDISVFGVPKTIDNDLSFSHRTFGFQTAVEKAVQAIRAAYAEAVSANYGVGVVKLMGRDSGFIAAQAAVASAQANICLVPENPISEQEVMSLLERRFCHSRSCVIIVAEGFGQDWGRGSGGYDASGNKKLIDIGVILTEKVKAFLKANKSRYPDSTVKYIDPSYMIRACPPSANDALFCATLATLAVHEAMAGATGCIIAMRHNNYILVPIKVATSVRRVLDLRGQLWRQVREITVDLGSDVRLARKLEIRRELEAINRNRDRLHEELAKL

T3: LiPFK (Leishmania infantum phosphofructokinase) (Leishmania infantum, UniProt A4I4W5)
T3 construct: gene pfk; recombinant, E. coli, purified; N-terminal His6 tag (given for SPR); glycosomal homotetramer
T3 sequence (A4I4W5 1-486): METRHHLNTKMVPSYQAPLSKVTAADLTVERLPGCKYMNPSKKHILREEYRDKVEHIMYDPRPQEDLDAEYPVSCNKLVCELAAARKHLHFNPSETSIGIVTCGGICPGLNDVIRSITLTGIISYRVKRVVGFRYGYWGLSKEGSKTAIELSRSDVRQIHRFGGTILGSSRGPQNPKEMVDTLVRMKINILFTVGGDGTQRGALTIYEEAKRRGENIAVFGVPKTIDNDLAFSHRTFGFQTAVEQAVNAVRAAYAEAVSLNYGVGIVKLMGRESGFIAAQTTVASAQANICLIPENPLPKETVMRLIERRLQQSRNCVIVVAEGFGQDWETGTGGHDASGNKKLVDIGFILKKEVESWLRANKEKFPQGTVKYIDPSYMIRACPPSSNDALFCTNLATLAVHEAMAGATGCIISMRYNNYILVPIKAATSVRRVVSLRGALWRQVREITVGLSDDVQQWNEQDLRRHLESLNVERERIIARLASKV

B1: Trypanosoma brucei phosphofructokinase (enzyme)
chain: T2 sequence (O15648 1-487)
notes: ATP-dependent phosphofructokinase of Trypanosoma brucei; 53-kDa subunit; residues up to 486 are named in the structure; The N-terminal His6 tag is stated for the SPR experiments and 'His-tagged TbPFK' for the kinetics; also called TbPFK; T. brucei PFK
B2: TcPFK (Trypanosoma cruzi phosphofructokinase) (Trypanosoma cruzi strain CL Brener) (protein)
chain: T1 sequence (Q4E657 1-485)
notes: recombinant, E. coli, purified; N-terminal His6 tag (given for SPR); glycosomal homotetramer

Key:
[1] = target: T1, TcPFK (Trypanosoma cruzi phosphofructokinase); assay: SPR steady state, His6-PFK captured on Ni-NTA chip; assay type: binding
From the text: SPR steady state, His6-PFK captured on Ni-NTA chip on TcPFK (Trypanosoma cruzi phosphofructokinase)

[2] = target: T2, TbPFK (Trypanosoma brucei phosphofructokinase); assay: SPR steady state, His6-PFK captured on Ni-NTA chip; assay type: binding
From the text: SPR steady state, His6-PFK captured on Ni-NTA chip on TbPFK (Trypanosoma brucei phosphofructokinase)

[3] = target: T3, LiPFK (Leishmania infantum phosphofructokinase); assay: SPR steady state, His6-PFK captured on Ni-NTA chip; assay type: binding
From the text: SPR steady state, His6-PFK captured on Ni-NTA chip on LiPFK (Leishmania infantum phosphofructokinase)

[4] = target: the molecule itself; assay: crystal structure; TbPFK at 6 mg/mL in gel filtration buffer with 1 mM F16BP, 1 mM AMP and 500 µM PFK inhibitor, hanging drop, 18 °C, 9.5% PEG 8000, 0.1 M sodium cacodylate pH 7.4; only AMP seen bound; two tetramers in the asymmetric unit
[5] = substrate: Nc1nc2c(ncn2[C@@H]2O[C@H](COP(=O)(O)OP(=O)(O)OP(=O)(O)O)[C@@H](O)[C@H]2O)c(=O)[nH]1; assay: pyruvate kinase-lactate dehydrogenase coupled assay, A340, sigmoidal fit; assay type: biochemical, Trypanosoma brucei; conditions: 3 mM F6P, no AMP, 10 mM MgCl2, 100 mM KCl, pH 7.4, 25 °C
From the text: pyruvate kinase-lactate dehydrogenase coupled assay, A340, sigmoidal fit on TbPFK (Trypanosoma brucei phosphofructokinase)

[6] = substrate: Nc1nc2c(ncn2[C@@H]2O[C@H](COP(=O)(O)OP(=O)(O)OP(=O)(O)O)[C@@H](O)[C@H]2O)c(=O)[nH]1; assay: as above; assay type: biochemical, Trypanosoma cruzi; conditions: 3 mM F6P, no AMP, 10 mM MgCl2, 100 mM KCl, pH 7.4, 25 °C
From the text: pyruvate kinase-lactate dehydrogenase coupled assay, A340, sigmoidal fit on TcPFK (Trypanosoma cruzi phosphofructokinase)

Molecule	Kd [1] [µM]	Kd [2] [µM]	Kd [3] [µM]	further results
Nc1ncnc2c1ncn2[C@@H]1O[C@H](COP(=O)(O)OP(=O)(O)O)[C@@H](O)[C@H]1O [ADP]	730	560	160	
Nc1ncnc2c1ncn2[C@@H]1O[C@H](COP(=O)(O)O)[C@@H](O)[C@H]1O [AMP]	1040	470	2300	
Nc1ncnc2c1ncn2[C@@H]1O[C@H](COP(=O)(O)OP(=O)(O)OP(=O)(O)O)[C@@H](O)[C@H]1O [ATP]	35.4	15.8	16.8	
B1				stoichiometry N [4]: 4; K0.5 [5]: 123 (8) μM; Vmax [5]: 38.3 µmol/min/mg; kcat [5]: 35.6 s⁻¹
B2				K0.5 [6]: 195 (14) μM; Vmax [6]: 63 µmol/min/mg; kcat [6]: 58.7 s⁻¹
